{"source": "patent US6306857A", "about": "“Methods for treating or preventing alzheimer's disease using substituted 1-aryl-3-piperazin-1'-yl propanones” (Molecular Geriatrics Corporation, priority 1999, dated 2001)", "key": {"[1]": {"system": "TG3 immunoreactivity in OKA treated MSN1a cells", "assay": "inhibition of TG3 immunoreactivity in OKA treated MSN1a cells (ELISA)", "format": "cell-based, human", "settings": "for IC50: Homo sapiens, 1 μM OKA, 0-64 μM drug, 2 hrs at 37° C., TG3 antibody", "method": "Therefore, the therapeutic activity of the compounds of the invention was assessed by the ability of these agents to affect the production of abnormally phosphorylated epitopes pertinent to the production of PHFs of AD, utilizing a human neuroblastoma cell line (MSN1a) in the presence of the protein phosphatsse inhibitor, okadaic acid (OKA).\nThis assay can thus be used to determine whether a drug is capable of preventing or intervening in AD by attenuating the production of abnormally phosphorylated paired helical filament epitopes associated with AD. To determine whether a drug is capable of preventing or intervening in AD activity, the MSN1a cells containing tau and associated proteins are treated with OKA capable of greatly increasing immnunoreactivity of the MSN1a cells with AD specific monoclonal antibodies. Then, either prior to or concomitantly with OKA treatment, a compound of the present invention is added to the culture. If the compound prevents the induction of the AD epitopes in the MSN1a cells treated with OKA, then it is said to have anti-AD activity. If the AD-specific antibodies are highly reactive with the neuroblastoma cells following OKA treatment in the presence of compound, then the compound is said to be ineffectual against AD.\nThe MSN1a human neuroblastoma line was subcloned from a population of MSN cells obtained from the laboratory of Dr. Peter Davies (Albert Einstein College of Medicine, New York, N.Y.). Cells were grown and maintained in flasks in RPMI 1640 medium, supplemented with 15% fetal calf serum, 100 U/ml penicillin, 100 U/ml Streptomycin, 0.5 ug/ml fungizone under 7.5% CO2 at 37° C.\nStock solutions of drugs were prepared by dissolving the anhydrous powders to final concentrations of either 10 or 20 mM in 50% aqueous or 100% dimethyl sulfoxide (DMSO), respectively. […]\nMSN cells grown in 225 cm^2 flasks are removed from the incubator, their medium decanted and replaced with 50 ml pre-warmed KRH. […] The supernatants are discarded and the cell pellets are resuspended, the cells counted and diluted to a density of 2×10^4 cells/50 ml. […]"}, "[2]": {"system": "PHF epitopes in MSN1a cells (PHF-1 immunoreactivity)", "assay": "PHF-1 immunoreactivity (western blot) in okadaic acid treated MSN1a cells", "format": "cell-based, human", "method": "FIG. 3 is a western blot showing PHF-1 immunoreactivity in lysates from control and chlorpromazine treated MSN cells treated with okadaic acid.\nThese compounds are effective at micromolar concentrations, with increased potency being evident when cells are treated prior to the addition of okadaic acid. The effective concentrations appear to be in the range at which these drugs are present in the brain following chronic treatment of psychiatric patients (Svendsen, C N, Psychopharmacology, 90, 316-321, 1986).\nTo determine the effect of chlorpromazine on the paired helical filament epitopes associated with AD, MSN1a cells expressing paired helical filament epitopes were incubated with […] chlorpromazine (CPZ) or a 0.2% DMSO vehicle control for 2 hours at 37° C. The cells were isolated by centrifugation, boiled for 10 minutes and […] protein from the resulting heat stable supernatants were loaded per lane on an SDS-PAGE gel. The gel was electrophoretically transferred to nitrocellulose membrane and then immunostained with PHF-1. […] The use of the MSN1a cell culture model for screening of novel compounds for therapeutic activity in AD is, therefore, quite warranted."}, "[3]": {"system": "PHF epitope levels in frontal (Brodman Area 10) and temporal (Brodman Area 38) brain tissue", "assay": "ALZ-EIA of PHF (ADAP) levels in post-mortem brain tissue of patients chronically treated with chlorpromazine", "format": "in vivo, human", "settings": "chronic treatment; frontal and temporal tissue at autopsy; vs normal controls and AD (FIGS. 4A, 4B)", "method": "FIG. 4A is a chart showing relative ADAP concentrations in Brodman Area 10 in Alzheimer's Disease patients, normal controls and patients treated with chlorpromazine (Rx).\nFIG. 4B is a chart showing relative ADAP concentrations in Brodman Area 38 in Alzheimer's Disease patients, normal controls and patients treated with chlorpromazine (Rx).\nFrontal and cortical brain tissue specimens obtained at autopsy from patients chronically treated with chlorpromazine were analyzed using the ALZ-EIA method previously described (Ghanbari, H A, et al, JAMA, 263, 2907, 1990). The results are shown in FIGS. 4A and 4B frontal (Broadman area 10) and temporal (Broadman area 38) regions, respectively. The brain tissue (post-mortem) from approximately the same number of (age matched) normal controls and Alzheimer's Disease patients were also analyzed and are presented in these figures as negative and positive controls (for normal and AD, respectively)."}, "[4]": {"system": "PHF-1 and TG3 epitopes in MSN1a cells", "assay": "generation of Alzheimer epitopes (PHF-1 and TG3) in MSN1a cells by okadaic acid", "format": "cell-based, human", "method": "Conditions were established which led to hyperphosphorylation of the proteins known to be involved in PHF formation. Using monoclonal antibodies PHF-1 and TG3 generated to human PHF preparations, the effects of a variety of manipulations of the phosphorylation state of these proteins were tested. These tests required that most of the abnormal epitopes recognized by these monoclonal antibodies in the human Alzheimer brain should be generated in the MSN1a cells. […] These epitopes are either absent or present at a very low level in untreated MSN1a cells.\nShown in FIG. 2A are bar graphs (percent of AD) of the ELISA immunoreactivity of brain preparations (AD or normal) to either PHF-1 or TG3. Shown in FIG. 2B are bar graphs (percent of MSN+) of the ELISA immunoreactivity of MSN1a cell preparations (minus or plus okadaic acid) to either PHF-1 or TG3. The MSN1a cell preparations plus vs minus okadaic acid closely parallel the AD vs nomal brain preparations. […] The cell culture system according to the invention in which epitopes characteristic of PHF can be readily generated and subsequently recognized by the specific Alzheimer brain specific antibodies provides an assay suitable for screening compounds for their ability to block the production of these phosphorylated epitopes."}}, "note": "Structures can show the parent of a compound that is named as a salt.", "data": [{"smiles": "CN(C)CCCN1c2ccccc2Sc2ccc(Cl)cc21", "note": "[Chlorpromazine, chlorpromazine]", "values": [{"measurement": "inhibition of the production of aberrantly phosphorylated epitopes", "setting": "[1]; MSN1a cell culture model, TG3", "result": "effective in inhibiting the production of these aberrant phosphorylated epitopes"}, {"measurement": "production of paired helical filament epitopes by the MSN1a cells", "setting": "[2]; 100 mM chlorpromazine, 2 hours at 37° C., PHF-1 immunostain", "result": "greatly decreased the production of paired helical filament epitopes"}, {"measurement": "inhibition of the expression of PHF epitopes", "setting": "[2]; MSN1a cells treated with okadaic acid, Alzheimer's Disease specific antibodies (cf. FIG. 3)", "result": "markedly inhibit the expression of PHF epitopes"}, {"measurement": "PHF epitope levels in brain of chlorpromazine treated patients", "setting": "[3]", "result": "low PHF epitope levels similar to normal controls"}]}, {"smiles": "CSc1ccc(C(=O)CCN2CCN(Cc3ccccc3)CC2)cc1", "note": "[Example 14, 1-(p-Methylthiophenyl)-3-(4'-benzyl-1'-piperazinyl)-1-propanone dihydrochloride]", "values": [{"measurement": "IC50", "setting": "[1]", "result": 5.8, "unit": "µM"}]}, {"smiles": "O=C(CCN1CCN(C(=O)c2cccc(F)c2F)CC1)c1ccc([N+](=O)[O-])cc1", "note": "[Example 63, 1-(p-Nitrophenyl)-3-[4'-(2\",3\"-difluorobenzoyl)-1'-piperazinyl]-1-propanonedlhydrochlorde]", "values": [{"measurement": "IC50", "setting": "[1]", "result": 7.3, "unit": "µM"}]}, {"smiles": "C=C1[C@@H](O)[C@@H]2O[C@]3(CC[C@H](/C=C/[C@@H](C)[C@@H]4CC(C)=C[C@@]5(O[C@H](C[C@@](C)(O)C(=O)O)CC[C@H]5O)O4)O3)CC[C@H]2O[C@@H]1[C@@H](O)C[C@H](C)[C@H]1O[C@@]2(CCCCO2)CC[C@H]1C", "note": "[okadaic acid]", "values": [{"measurement": "generation of the epitopes associated with Alzheimer brain specific monoclonal antibodies", "setting": "[4]", "result": "found to generate the epitopes"}]}]}
